{"source": "patent US11053204B2", "about": "“Pyrimidinyloxy benzene derivatives as herbicides” (FMC Corporation, priority 2015, dated 2021)", "type_in_all_cases": "in vivo", "key": {"[1]": {"test_system": "Canada thistle (Cirsium arvense)", "experiment": "Test C postemergence, plant response rating", "conditions": "for Canada Thistle plant response rating: scale 0 to 100 (0 no effect, 100 complete control)", "summary_of_the_method": "(§1)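 Both timings shared one formulation, a non-phytotoxic solvent mixture with surfactant, and a greenhouse period of 13 to 15 d. Preemergence used seeded loam/sand or silt loam soil, postemergence used 2 to 18 cm plants; visual ratings ran from 0 (no effect) to 100 (complete control).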"}, "[2]": {"test_system": "buckwheat, wild (wild buckwheat, Polygonum convolvulus)", "experiment": "Test C postemergence, plant response rating", "conditions": "for Buckwheat, Wild plant response rating: scale 0 to 100 (0 no effect, 100 complete control)", "summary_of_the_method": "as §1"}, "[3]": {"test_system": "field poppy (Papaver rhoeas)", "experiment": "Test C postemergence, plant response rating", "conditions": "for Field Poppy plant response rating: scale 0 to 100 (0 no effect, 100 complete control)", "summary_of_the_method": "as §1"}, "[4]": {"test_system": "field violet (Viola arvensis)", "experiment": "Test C postemergence, plant response rating", "conditions": "for Field Violet plant response rating: scale 0 to 100 (0 no effect, 100 complete control)", "summary_of_the_method": "as §1"}, "[5]": {"test_system": "geranium, cutleaf (cutleaf geranium, Geranium dissectum)", "experiment": "Test C postemergence, plant response rating", "conditions": "for Geranium, Cutleaf plant response rating: scale 0 to 100 (0 no effect, 100 complete control)", "summary_of_the_method": "as §1"}, "[6]": {"test_system": "johnsongrass (Sorghum halepense)", "experiment": "Test C postemergence, plant response rating", "conditions": "for Johnsongrass plant response rating: scale 0 to 100 (0 no effect, 100 complete control)", "summary_of_the_method": "as §1"}, "[7]": {"test_system": "nightshade (eastern black nightshade, Solanum ptycanthum)", "experiment": "Test C postemergence, plant response rating", "conditions": "for Nightshade plant response rating: scale 0 to 100 (0 no effect, 100 complete control)", "summary_of_the_method": "as §1"}, "[8]": {"test_system": "pigweed, palmer (palmer pigweed, Amaranthus palmeri)", "experiment": "Test C postemergence, plant response rating", "conditions": "for Pigweed, Palmer plant response rating: scale 0 to 100 (0 no effect, 100 complete control)", "summary_of_the_method": "as §1"}, "[9]": {"test_system": "speedwell (bird's-eye speedwell, Veronica persica)", "experiment": "Test C postemergence, plant response rating", "conditions": "for Speedwell plant response rating: scale 0 to 100 (0 no effect, 100 complete control)", "summary_of_the_method": "as §1"}, "[10]": {"test_system": "surinam grass (Brachiaria decumbens)", "experiment": "Test C postemergence, plant response rating", "summary_of_the_method": "as §1"}, "[11]": {"test_system": "wild mustard (Sinapis arvensis)", "experiment": "Test C postemergence, plant response rating", "conditions": "for Mustard, Wild plant response rating: scale 0 to 100 (0 no effect, 100 complete control)", "summary_of_the_method": "as §1"}, "[12]": {"test_system": "wild poinsettia (Euphorbia heterophylla)", "experiment": "Test C postemergence, plant response rating", "conditions": "for Poinsettia, Wild plant response rating: scale 0 to 100 (0 no effect, 100 complete control)", "summary_of_the_method": "as §1"}, "[13]": {"test_system": "windgrass (Apera spica-venti)", "experiment": "Test C postemergence, plant response rating", "summary_of_the_method": "as §1"}, "[14]": {"test_system": "galium (catchweed bedstraw, Galium aparine)", "experiment": "Test C preemergence, plant response rating"}, "[15]": {"test_system": "johnsongrass (Sorghum halepense)", "experiment": "Test C preemergence, plant response rating"}, "[16]": {"test_system": "barnyardgrass (Echinochloa crus-galli)", "experiment": "Test C preemergence, plant response rating", "conditions": "Preemergence"}, "[17]": {"test_system": "pigweed (Amaranthus retroflexus)", "experiment": "Test C postemergence, plant response rating", "conditions": "for Plant response rating, Pigweed: scale 0 to 100; for Pigweed plant response rating: scale 0 to 100 (0 no effect, 100 complete control)", "summary_of_the_method": "as §1"}, "[18]": {"conditions": "125 g ai/ha, scale 0 to 100 (0 no effect, 100 complete control)"}}}
{"smiles": "O=C(CCC(F)(F)C(F)(F)F)c1c(Br)cccc1Oc1ncc(Cl)cn1", "note": "[Compound 110]", "values": [{"measurement": "Plant response rating, Canada Thistle", "setting": "[1]; 16 g ai/ha, scale of 0 to 100", "value": 65}, {"measurement": "Plant response rating, Canada Thistle", "setting": "[1]; 31 g ai/ha, scale 0 to 100", "value": 90}, {"measurement": "Canada Thistle plant response rating", "setting": "[1]; 62 g ai/ha", "value": 98}, {"measurement": "Canada Thistle plant response rating", "setting": "[1]; 125 g ai/ha", "value": 95}, {"measurement": "Plant response rating, Buckwheat, Wild", "setting": "[2]; 16 g ai/ha, scale of 0 to 100", "value": 85}, {"measurement": "Plant response rating, Buckwheat, Wild", "setting": "[2]; 31 g ai/ha, scale 0 to 100", "value": 85}, {"measurement": "Buckwheat, Wild plant response rating", "setting": "[2]; 62 g ai/ha", "value": 95}, {"measurement": "Buckwheat, Wild plant response rating", "setting": "[2]; 125 g ai/ha", "value": 80}, {"measurement": "Plant response rating, Field Poppy", "setting": "[3]; 16 g ai/ha, scale of 0 to 100", "value": 85}, {"measurement": "Plant response rating, Field Poppy", "setting": "[3]; 31 g ai/ha, scale 0 to 100", "value": 100}, {"measurement": "Field Poppy plant response rating", "setting": "[3]; 62 g ai/ha", "value": 100}, {"measurement": "Field Poppy plant response rating", "setting": "[3]; 125 g ai/ha", "value": 100}, {"measurement": "Plant response rating, Field Violet", "setting": "[4]; 16 g ai/ha, scale of 0 to 100", "value": 80}, {"measurement": "Plant response rating, Field Violet", "setting": "[4]; 31 g ai/ha, scale 0 to 100", "value": 95}, {"measurement": "Field Violet plant response rating", "setting": "[4]; 62 g ai/ha", "value": 95}, {"measurement": "Field Violet plant response rating", "setting": "[4]; 125 g ai/ha", "value": 100}, {"measurement": "Plant response rating, Geranium, Cutleaf", "setting": "[5]; 16 g ai/ha, scale of 0 to 100", "value": 5}, {"measurement": "Plant response rating, Geranium, Cutleaf", "setting": "[5]; 31 g ai/ha, scale 0 to 100", "value": 30}, {"measurement": "Geranium, Cutleaf plant response rating", "setting": "[5]; 62 g ai/ha", "value": 40}, {"measurement": "Geranium, Cutleaf plant response rating", "setting": "[5]; 125 g ai/ha", "value": 60}, {"measurement": "Plant response rating, Johnsongrass", "setting": "[6]; 16 g ai/ha, scale of 0 to 100", "value": 5}, {"measurement": "Plant response rating, Johnsongrass", "setting": "[6]; 31 g ai/ha, scale 0 to 100", "value": 10}, {"measurement": "Johnsongrass plant response rating", "setting": "[6]; 62 g ai/ha", "value": 10}, {"measurement": "Johnsongrass plant response rating", "setting": "[6]; 125 g ai/ha", "value": 15}, {"measurement": "Plant response rating, Nightshade", "setting": "[7]; 16 g ai/ha, scale of 0 to 100", "value": 75}, {"measurement": "Plant response rating, Nightshade", "setting": "[7]; 31 g ai/ha, scale 0 to 100", "value": 85}, {"measurement": "Nightshade plant response rating", "setting": "[7]; 62 g ai/ha", "value": 95}, {"measurement": "Nightshade plant response rating", "setting": "[7]; 125 g ai/ha", "value": 98}, {"measurement": "Plant response rating, Pigweed, Palmer", "setting": "[8]; 16 g ai/ha, scale of 0 to 100", "value": 75}, {"measurement": "Plant response rating, Pigweed, Palmer", "setting": "[8]; 31 g ai/ha, scale 0 to 100", "value": 95}, {"measurement": "Pigweed, Palmer plant response rating", "setting": "[8]; 62 g ai/ha", "value": 98}, {"measurement": "Pigweed, Palmer plant response rating", "setting": "[8]; 125 g ai/ha", "value": 95}, {"measurement": "Plant response rating, Speedwell", "setting": "[9]; 16 g ai/ha, scale of 0 to 100", "value": 60}, {"measurement": "Plant response rating, Speedwell", "setting": "[9]; 31 g ai/ha, scale 0 to 100", "value": 95}, {"measurement": "Speedwell plant response rating", "setting": "[9]; 62 g ai/ha", "value": 90}, {"measurement": "Speedwell plant response rating", "setting": "[9]; 125 g ai/ha", "value": 95}, {"measurement": "Plant response rating, Surinam Grass", "setting": "[10]; 16 g ai/ha, scale of 0 to 100", "value": 15}, {"measurement": "Plant response rating, Surinam Grass", "setting": "[10]; 31 g ai/ha, scale 0 to 100", "value": 20}, {"measurement": "Surinam Grass plant response rating", "setting": "[10]; [18]", "value": 25}, {"measurement": "Plant response rating, Mustard, Wild", "setting": "[11]; 16 g ai/ha, scale of 0 to 100", "value": 90}, {"measurement": "Plant response rating, Mustard, Wild", "setting": "[11]; 31 g ai/ha, scale 0 to 100", "value": 90}, {"measurement": "Mustard, Wild plant response rating", "setting": "[11]; 62 g ai/ha", "value": 100}, {"measurement": "Mustard, Wild plant response rating", "setting": "[11]; 125 g ai/ha", "value": 100}, {"measurement": "Plant response rating, Poinsettia, Wild", "setting": "[12]; 16 g ai/ha, scale of 0 to 100", "value": 40}, {"measurement": "Plant response rating, Poinsettia, Wild", "setting": "[12]; 31 g ai/ha, scale 0 to 100", "value": 65}, {"measurement": "Poinsettia, Wild plant response rating", "setting": "[12]; 62 g ai/ha", "value": 80}, {"measurement": "Poinsettia, Wild plant response rating", "setting": "[12]; 125 g ai/ha", "value": 90}, {"measurement": "Plant response rating, Windgrass", "setting": "[13]; 16 g ai/ha, scale of 0 to 100", "value": 20}, {"measurement": "Plant response rating, Windgrass", "setting": "[13]; 31 g ai/ha, scale 0 to 100", "value": 25}, {"measurement": "Windgrass plant response rating", "setting": "[13]; [18]", "value": 30}]}
{"smiles": "O=C(OCCC(F)(F)F)c1c(Br)cccc1Oc1ncc(Br)cn1", "note": "[Compound 33]", "values": [{"measurement": "Plant response rating, Galium", "setting": "[14]; 16 g ai/ha, scale 0 to 100", "value": 0}, {"measurement": "Plant response rating, Galium", "setting": "[14]; 31 g ai/ha, scale 0 to 100", "value": 60}, {"measurement": "Plant response rating, Galium", "setting": "[14]; 62 g ai/ha, scale of 0 to 100", "value": 60}, {"measurement": "Plant response rating, Galium", "setting": "[14]; 125 g ai/ha, scale of 0 to 100", "value": 95}, {"measurement": "Plant response rating, Johnsongrass", "setting": "[15]; 16 g ai/ha, scale 0 to 100", "value": 0}, {"measurement": "Plant response rating, Johnsongrass", "setting": "[15]; 31 g ai/ha, scale 0 to 100", "value": 5}, {"measurement": "Plant response rating, Johnsongrass", "setting": "[15]; 62 g ai/ha, scale 0 to 100", "value": 25}, {"measurement": "Plant response rating, Johnsongrass", "setting": "[15]; 125 g ai/ha, scale of 0 to 100", "value": 35}, {"measurement": "Plant response rating, Barnyardgrass", "setting": "[16]; 62 g ai/ha, scale of 0 to 100", "value": 95}, {"measurement": "Plant response rating, Barnyardgrass", "setting": "[16]; 125 g ai/ha, scale of 0 to 100", "value": 100}, {"measurement": "Plant response rating, Barnyardgrass", "setting": "[16]; 16 g ai/ha, scale 0 to 100", "value": 20}, {"measurement": "Plant response rating, Barnyardgrass", "setting": "[16]; 31 g ai/ha, scale 0 to 100", "value": 40}, {"measurement": "Plant response rating, Johnsongrass", "setting": "[6]; 16 g ai/ha, scale 0 to 100", "value": 10}, {"measurement": "Plant response rating, Johnsongrass", "setting": "[6]; 31 g ai/ha, scale 0 to 100", "value": 10}, {"measurement": "Johnsongrass plant response rating", "setting": "[6]; 62 g ai/ha", "value": 20}, {"measurement": "Johnsongrass plant response rating", "setting": "[6]; 125 g ai/ha", "value": 20}, {"measurement": "Plant response rating, Pigweed", "setting": "[17]; 16 g ai/ha", "value": 95}, {"measurement": "Plant response rating, Pigweed", "setting": "[17]; 31 g ai/ha", "value": 95}, {"measurement": "Pigweed plant response rating", "setting": "[17]; 62 g ai/ha", "value": 98}, {"measurement": "Pigweed plant response rating", "setting": "[17]; 125 g ai/ha", "value": 100}]}
